# Reference: US10702542B2, “Glycan therapeutics and related methods thereof” (priority 2015, dated 2020)
# Tests used:
# [1] = tested on: gut microbiota; test: Mouse model of Clostridium difficile infection: shifts in microbial gut constituents (16S rRNA); assay type: in vivo, mice (female C57BL/6); conditions: Day 6, FIG. 13; predicted from 16S rRNA sequencing using PICRUST
# Protocol: (§1) Mice (female C57BL/6, 8-10 weeks old, 16-18 grams each; Harlan Laboratories, Indianapolis, Ind.) were housed in groups of 3 per cage, with 4 cages per treatment group. Mice were exposed to a cocktail of antibiotics in their drinking water for a period of 9 days, starting on day −14, fourteen days before Clostridium difficile challenge on day 0. The antibiotic cocktail consisted of 1% glucose, kanamycin (0.5 mg/ml), gentamicin (0.044 mg/ml), colistin (1062.5 U/ml), metronidazole (0.269 mg/ml), ciprofloxacin (0.156 mg/ml), ampicillin (0.1 mg/ml) and vancomycin (0.056 mg/ml). Three days prior to Clostridium difficile challenge (on Day −3), mice received a single dose of clindamycin (10 mg/kg) in a volume of 0.5 mL distilled water by oral gavage (PO) (see Table 10). All chemicals were purchased from Sigma-Aldrich Corp. (St. Louis, Mo.). On day 0, mice were challenged with Clostridium difficile (strain VPI 10463 (ATCC-43255)) spores at approximately 4.5 log10 spores per mouse, PO, in a dose volume of 0.5 mL distilled water.
# To determine how the gut microbiota composition responds to treatment with glycan therapeutics, 16S rRNA sequencing of fecal pellets on the V4 variable region using standard protocols from the Earth Microbiome Project was performed (www.earthmicrobiome.org/emp-standard-protocols/). […]
# [2] = tested on: Clostridium difficile (strain VPI 10463 (ATCC-43255)); test: Mouse model of Clostridium difficile infection: disease-associated phenotypes; assay type: in vivo, mice (female C57BL/6)
# Protocol: This experiment was conducted to analyze the effects of glycan therapeutics in a mouse model of Clostridium difficile infection (Chen et al, 2008, A Mouse Model of Clostridium difficile—Associated Disease. Gastroenterology 135(6), 1984-1992). In this model, normal mice were exposed to an antibiotic regimen that renders them susceptible to C. difficile infection and disease symptoms, similar with respect to their development and manifestation of human clinical disease. In humans, the disease is most often the result of exposure to broad spectrum antibiotics which is thought to result in intestinal dysbiosis and subsequent increased colonic colonization with C. difficile. The increased bio-burden of C. difficile leads to toxin production by the bacterium and colonic inflammation. Clinical manifestations in humans include diarrhea, weight loss, intestinal inflammation, fever and dehydration. The clinical incidence of C. difficile infection and disease is about 750,000 cases per year in the US.
# as §1
# Disease-associated phenotypes were recorded for a duration of ten days starting on the day of Clostridium difficile challenge (on day 0) through day 10. The phenotypes, including lethargy, hunched posture and ruffled coat, wet tail/abdomen and hypothermia were scored from 0 to 4: Normal=0; Lethargic=1; Lethargic+Hunched=2; Lethargic+Hunched+Wet tail/abdomen (diarrhea)=3; and Lethargic+Hunched+Wet tail/abdomen+Hypothermic=4. Death (day 0 to day 10 or 11) and weight (day 1 to day 7 and day 10) of the animals was also monitored and recorded.
# A treatment's ability to protect animals from death through day 6 in these experiments indicates disease prevention, e.g., in a human.
# Effects of treatments was assessed by comparing the disease-associated phenotypes in glycan-treated, untreated (plain water) and vancomycin-treated groups. FOS is a commercially-available, non-digestible fructooligosaccharide.
# [3] = vancomycin PO gavage QD days 0 to 4
smiles,measurement,setting,value
"CN[C@H](CC(C)C)C(=O)N[C@H]1C(=O)N[C@@H](CC(N)=O)C(=O)N[C@H]2C(=O)N[C@H]3C(=O)N[C@H](C(=O)N[C@H](C(=O)O)c4cc(O)cc(O)c4-c4cc3ccc4O)[C@H](O)c3ccc(c(Cl)c3)Oc3cc2cc(c3O[C@@H]2O[C@H](CO)[C@@H](O)[C@H](O)[C@H]2O[C@H]2C[C@](C)(N)[C@H](O)[C@H](C)O2)Oc2ccc(cc2Cl)[C@H]1O [Vancomycin, vancomycin]",predicted functional potential of the gut microbiome to convert primary bile acids to secondary bile acids,[1],not observed
same,animal survival versus animals treated with water (vehicle),"[2]; Kaplan-Meier, FIG. 10",significant difference
same,clinical score of survivors,"[2]; score 0 to 4, after end of treatment, days 7 to 10/11",above 0
same,animals died by day 10,[2]; [3],17%
same,animals survived to day 7,[2]; [3],100%
same,clinical signs on day 10,[2]; [3],exhibited clinical signs
